These results are taken from patent publication US4808701A, “Cyclic peptides having appetite regulating activity” (Hoffmann-La Roche Inc., priority 1987, dated 1989).

As usually defined, the IC50 is the point on the concentration scale where inhibition reaches its midpoint.

The nature of series [1]: in vitro. The note with it: human, real gastrointestinal fluid or homogenate.
Description: The degradation was monitored by analytical HPLC on a micro Bondapack (C18 column (0.4×30 cm) with a linear gradient of 10-40% of 0.01M NH4 Ac/CH3 CN in 40 min. with a flow rate of 2 ml/min and detection at 225 nm.
Series [2] concerns the target T1, 3H-CCK-8-(SO3H) binding, bovine striatum homogenate (Bos taurus, UniProt P79266).
T1 construct: tissue homogenate (striatum 0.26 mg protein in 2 ml final volume; pancreas 0.165 mg protein in 1 ml final volume); from tissue; host or cells: bovine striatum membrane homogenate
T1 sequence (P79266 1-454): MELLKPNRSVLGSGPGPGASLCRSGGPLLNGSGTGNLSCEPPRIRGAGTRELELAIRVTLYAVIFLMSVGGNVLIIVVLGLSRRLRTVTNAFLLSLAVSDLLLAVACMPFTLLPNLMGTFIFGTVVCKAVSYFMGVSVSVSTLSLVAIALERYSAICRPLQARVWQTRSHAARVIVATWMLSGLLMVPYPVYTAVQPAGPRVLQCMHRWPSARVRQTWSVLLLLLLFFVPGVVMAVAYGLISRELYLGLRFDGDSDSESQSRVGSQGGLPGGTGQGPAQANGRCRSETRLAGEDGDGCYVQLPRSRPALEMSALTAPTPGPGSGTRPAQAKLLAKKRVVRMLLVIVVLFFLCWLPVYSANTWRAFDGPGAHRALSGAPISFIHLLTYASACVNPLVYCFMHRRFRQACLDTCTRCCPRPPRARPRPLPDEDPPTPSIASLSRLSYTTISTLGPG
Description: In vitro receptor binding assay, bovine striatum. To be noted: 0.15 nM 3H-CCK-8-(SO3H), 30 min, 25° C.; read-out: Bovine Striatum IC50 (inhibition of specific 3H-CCK-8-(SO3H) binding). As for the experimental part:
(§1) The tissue was homogenized 2× for approx. 15 sec. at 0° C. using a Polytron homogenizer at a setting of 6. The tissue was isolated by centrifugation at 48,000×g for 10 min. at 0° C. […] Samples were incubated for 30 min. at 25° C. and the incubation terminated by pouring the mixture onto a pre-wet Whatman GF/B filter on a Sandbeck Vacuum Filtration Manifold. The incubation tubes were washed with 2×3 ml of ice-cold HEPES Buffer #2 and the wash filtered through the GF/B filter. The filter was air dried for 10 min. and then placed in a scintillation vial with 12 ml of Beckman HP/b Ready-Solv scintillation cocktail. The vials were shaken for 2-12 hours and then counted using a Beckman Model 7800 liquid scintillation spectrometer.

Series [3] deals with T2, 3H-CCK-8-(SO3H) binding, rat pancreas homogenate (Rattus norvegicus, UniProt P30551).
T2 construct: tissue homogenate (striatum 0.26 mg protein in 2 ml final volume; pancreas 0.165 mg protein in 1 ml final volume); from tissue; host or cells: rat pancreas membrane homogenate
T2 sequence (P30551 1-444): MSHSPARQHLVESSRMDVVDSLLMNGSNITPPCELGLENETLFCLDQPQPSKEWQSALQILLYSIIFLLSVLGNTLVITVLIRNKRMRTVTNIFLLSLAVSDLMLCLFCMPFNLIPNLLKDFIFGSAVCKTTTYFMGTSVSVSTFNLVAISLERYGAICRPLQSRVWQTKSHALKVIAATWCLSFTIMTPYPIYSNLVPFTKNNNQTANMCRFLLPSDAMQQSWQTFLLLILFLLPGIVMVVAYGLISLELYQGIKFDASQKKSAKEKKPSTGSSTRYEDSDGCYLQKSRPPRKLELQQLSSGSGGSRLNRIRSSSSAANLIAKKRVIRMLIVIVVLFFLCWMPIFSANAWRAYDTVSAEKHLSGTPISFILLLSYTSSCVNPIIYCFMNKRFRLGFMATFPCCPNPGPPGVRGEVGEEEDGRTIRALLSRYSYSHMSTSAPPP
Description: In vitro receptor binding assay, rat pancreas. The note with it: 0.15 nM 3H-CCK-8-(SO3H), 30 min, 25° C.; read-out: Rat Pancreas IC50 (inhibition of specific 3H-CCK-8-(SO3H) binding). As for the experimental part:
as §1

Series [4] relates to food intake in lean and obese men. The note with it: infusions in lean and obese men; cited from earlier work.
For series [5], the system named is food intake of meal-trained male Sprague-Dawley (CD) rats. Description: Two-meal feeding assay. The series is classed as in vivo, rat. The note with it: dose 32 microgm/kg i.p. 15 min before first meal; mean ± SEM. As to the method:
Male Sprague-Dawley (CD) rats weighing 180-200 grams (Charles River Breeding Laboratories) were acclimated to a 12 h light/dark cycle (6 a.m. to 6 p.m.) in a room kept at 22° C. They were subsequently fasted for two days, weighed, placed in individual cages, and a four-day period of meal training was begun. During this time the rats were given ground laboratory chow (Purina Lab Chow) in jars for one hour from 9:00 a.m. until 10:00 a.m., the jars were removed from 10:00 a.m. to 12:00 p.m., and placed back in the cages from 12:00 until 1:00 p.m. Under this `1-2-1` meal feeding regime, most rats learn to eat approximately as much per day during the two hours they have access to food as rats which have food ad libitum over the entire 24-hour day. On the fourth day, the rats were weighed again, and any which lost more than five grams body weight were excluded from the test. The animals were then distributed into experimental (n=5 to 6) and control groups (n=6-12), but not matched for body weight.
Peptides of the invention were suspended either in saline, if soluble, or in 1% gum arabic, if insoluble, at concentrations of 32 to 320 μg/ml/kg body weight and were administered intraperitonerally 15 min before the first meal on day 5 of meal feeding. […] Food intake was expressed as a mean and standard error of the mean as a percent of control values for the various groups. […]

Structures are written as SMILES. Where a SMILES comes first, the peptide text is derived from it. A value given as a limit tells only on which side of the number the result lay.

Take `CSCC[C@@H]1NC(=O)[C@H](Cc2c[nH]c3ccccc23)NC(=O)CNC(=O)[C@@H](NC(=O)[C@H](Cc2ccc(OS(=O)(=O)O)cc2)NC(C)=O)CCCCNC(=O)C[C@@H](C(=O)N(C)[C@@H](Cc2ccccc2)C(N)=O)NC1=O` [Example 1] (HELM PEPTIDE1{[ac].[O=C([C@H](Cc1ccc(OS(=O)(=O)O)cc1)N[*:1])[*:2]].K.G.W.M.D.[meF].[am]}$PEPTIDE1,PEPTIDE1,3:R3-7:R3$$$V2.0): the metabolised at 1 h, 0.5 mg/mL in series [1] is 1.4%. The IC50 was 3 µM in series [2] and 1.5 µM in series [3].

`CSCC[C@@H]1NC(=O)[C@H](Cc2c[nH]c3ccccc23)NC(=O)CNC(=O)[C@@H](NC(=O)[C@H](Cc2ccc(OS(=O)(=O)O)cc2)NC(C)=O)CCCCNC(=O)C[C@@H](C(=O)N[C@@H](Cc2ccccc2)C(N)=O)NC1=O` (HELM PEPTIDE1{[ac].[O=C([C@H](Cc1ccc(OS(=O)(=O)O)cc1)N[*:1])[*:2]].K.G.W.M.D.F.[am]}$PEPTIDE1,PEPTIDE1,3:R3-7:R3$$$V2.0): the IC50 is over 1 µM in series [2] and 0.045 µM in series [3].

Regarding `CSCC[C@@H]1NC(=O)[C@H](Cc2c[nH]c3ccccc23)NC(=O)CNC(=O)[C@@H](NC(=O)[C@H](Cc2ccc(OS(=O)(=O)O)cc2)NC(C)=O)CCCNC(=O)C[C@@H](C(=O)N(C)[C@@H](Cc2ccccc2)C(N)=O)NC1=O` (HELM PEPTIDE1{[ac].[O=C([C@H](Cc1ccc(OS(=O)(=O)O)cc1)N[*:1])[*:2]].[Orn].G.W.M.D.[meF].[am]}$PEPTIDE1,PEPTIDE1,3:R3-7:R3$$$V2.0), the IC50 stood at 52 µM in series [2] and 13 µM in series [3].

Regarding `CSCC[C@H](NC(=O)[C@H](Cc1ccc(OS(=O)(=O)O)cc1)NC(=O)[C@@H](N)CC(=O)O)C(=O)NCC(=O)N[C@@H](Cc1c[nH]c2ccccc12)C(=O)N[C@@H](CCSC)C(=O)N[C@@H](CC(=O)O)C(=O)N[C@@H](Cc1ccccc1)C(N)=O` [CCK-8, H-Asp-Tyr-(SO3 H)-Met-Gly-Trp-Met-Asp-Phe-NH2], in series [1], the metabolised at 0.25 h, 0.5 mg/mL turned out to be 90% and the metabolised at 1 h, 0.5 mg/mL turned out to be 100%. The IC50 in series [2] was 0.001 to 0.0046 µM. The IC50 in series [3] is 0.001 to 0.0032 µM. For the same molecule, in series [4], the “Effect of infusion on food intake” value is reported as “decrease food intake”. Also, in series [5], the “Food Intake 1st Meal” value is listed as 27 ± 17 % of Control and the “Food Intake 2nd Meal” value was 149 ± 6 % of Control.

Take `CCCC[C@@H]1NC(=O)[C@H](Cc2c[nH]c3ccccc23)NC(=O)CNC(=O)[C@@H](NC(=O)[C@H](Cc2ccc(OS(=O)(=O)O)cc2)NC(C)=O)CCCCNC(=O)C[C@@H](C(=O)N(C)[C@@H](Cc2ccccc2)C(N)=O)NC1=O` (HELM PEPTIDE1{[ac].[O=C([C@H](Cc1ccc(OS(=O)(=O)O)cc1)N[*:1])[*:2]].K.G.W.[Nle].D.[meF].[am]}$PEPTIDE1,PEPTIDE1,3:R3-7:R3$$$V2.0): the IC50 in series [2] was over 1 µM; in series [3] it was 6.6 µM.

For the molecule `CSCC[C@@H]1NC(=O)[C@H](Cc2ccc(OS(=O)(=O)O)cc2)NC(=O)CC[C@@H](C(=O)N[C@H](C(=O)N(C)[C@@H](Cc2ccccc2)C(N)=O)[C@@H](C)OS(=O)(=O)O)NC(=O)[C@H](Cc2c[nH]c3ccccc23)NC(=O)CNC1=O` [Example 3] (HELM PEPTIDE1{[O=C([C@H](Cc1ccc(OS(=O)(=O)O)cc1)N[*:1])[*:2]].M.G.W.E.[C[C@@H](OS(=O)(=O)O)[C@H](N[*:1])C(=O)[*:2]].[meF].[am]}$PEPTIDE1,PEPTIDE1,1:R1-5:R3$$$V2.0), the IC50 in series [2] and in series [3] was over 10 µM throughout.
